Experiment in all cases: Post-emergence efficacy, glasshouse spray test
What all share (assay type): in vivo

Experiment [1] concerns Ipomoea hederacea (IPOHE). The conditions noted are these: Ipomoea hederacea, post-emergence, 312 h, evaluated after 13 days, read-out: Control of weed species after post-emergence application, IPOHE (100=total damage to plant; 0=no damage to plant); for pest or weed control at 500 g/ha: Application Rate 500 g/Ha. The essentials:
(§1)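 Each value is a visual injury score (0 none, 100 total) read 13 days post-application. Plants were 14 days old at spraying and kept at 24/16° C, 14 h light.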

Experiment [2] concerns Echinochloa crus-galli (ECHCG). As to conditions: Echinochloa crus-galli, post-emergence, 312 h, evaluated after 13 days, read-out: Control of weed species after post-emergence application, ECHCG (100=total damage to plant; 0=no damage to plant); for pest or weed control at 500 g/ha: Application Rate 500 g/Ha. The essentials:
as §1

For a further experiment, the system named is Eleusine indica (ELEIN). As to conditions: Eleusine indica, post-emergence, 312 h, evaluated after 13 days, read-out: Control of weed species after post-emergence application, ELEIN (100=total damage to plant; 0=no damage to plant); for pest or weed control at 500 g/ha: Application Rate 500 g/Ha. A digest of the protocol:
as §1

For the next experiment, the system named is Lolium perenne (LOLPE). As to conditions: Lolium perenne, post-emergence, 312 h, evaluated after 13 days, read-out: Control of weed species after post-emergence application, LOLPE (100=total damage to plant; 0=no damage to plant); for pest or weed control at 500 g/ha: Application Rate 500 g/Ha. The essentials: as §1
For another experiment, the system named is Setaia fabei (SETFA). The conditions noted are these: Setaria faberi, post-emergence, 312 h, evaluated after 13 days, read-out: Control of weed species after post-emergence application, SETFA (100=total damage to plant; 0=no damage to plant); for pest or weed control at 500 g/ha: Application Rate 500 g/Ha. The essentials:
as §1

Experiment [3] concerns Euphorbia heterophylla (EPHHL). As to conditions: Euphorbia heterophylla, post-emergence, 312 h, evaluated after 13 days, read-out: Control of weed species after post-emergence application, EPHHL (100=total damage to plant; 0=no damage to plant); for pest or weed control at 500 g/ha: Application Rate 500 g/Ha. A digest of the protocol: as §1
For experiment [4], the system named is Amaranthus palmeri (AMAPA). The conditions noted are these: Amaranthus palmeri, post-emergence, 312 h, evaluated after 13 days, read-out: Control of weed species after post-emergence application, AMAPA (100=total damage to plant; 0=no damage to plant); for pest or weed control at 500 g/ha: Application Rate 500 g/Ha. The essentials:
as §1

The subject of experiment [5] is Chenopodium album (CHEAL). As to conditions: Chenopodium album, post-emergence, 312 h, evaluated after 13 days, read-out: Control of weed species after post-emergence application, CHEAL (100=total damage to plant; 0=no damage to plant); for pest or weed control at 500 g/ha: Application Rate 500 g/Ha. A digest of the protocol: as §1
Experiment [6] has as its system Digitaria sanguinalis (DIGSA). The conditions noted are these: Digitaria sanguinalis, post-emergence, 312 h, evaluated after 13 days, read-out: Control of weed species after post-emergence application, DIGSA (100=total damage to plant; 0=no damage to plant); for pest or weed control at 500 g/ha: Application Rate 500 g/Ha. The essentials: as §1

As to `CCOC(=O)c1coc(-c2cc[n+](CCC(=O)O)nc2)n1` [Compound A126], the pest or weed control at 500 g/ha worked out at 30% in experiment [1]; 60% in experiment [2]; 90% in the experiment with Eleusine indica (ELEIN); 60% in the experiment on Lolium perenne (LOLPE); 70% in the experiment on Setaia fabei (SETFA); 70% in experiment [3]. Besides, the results for the pest or weed control at 500 g/ha in experiment [4], in experiment [5] and in [6] were 90%, 70% and 90%, respectively.
Turning to `O=S(=O)([O-])CC(O)C[n+]1ccc(-c2ncco2)cn1` (stereo not drawn) [Compound A84], the pest or weed control at 500 g/ha in [1] worked out at 40%; in experiment [2], 70%; in the experiment on Eleusine indica (ELEIN) it was 70%; in the experiment with Lolium perenne (LOLPE), 50%; in the experiment with Setaia fabei (SETFA), 50%; in experiment [3], 90%. In addition, the pest or weed control at 500 g/ha was 100% in [4], 90% in [5] and 70% in [6].
In the case of `O=S(=O)([O-])CC[n+]1ccc(-c2cccs2)cn1` [Compound A36], the pest or weed control at 500 g/ha in experiment [1] came out at 30%; in experiment [2], 0%; in the experiment on Eleusine indica (ELEIN), 20%; with Lolium perenne (LOLPE) it was 20%; in the experiment on Setaia fabei (SETFA), 10%; in experiment [3] it was 30%. The pest or weed control at 500 g/ha is 100% in experiment [4], 60% in experiment [5] and 10% in [6].
Consider `Cn1cnnc1-c1cc[n+](CCS(=O)(=O)[O-])nc1` [Compound A50], for which the pest or weed control at 500 g/ha is 70% in experiment [1]; 100% in experiment [2]; 70% in the experiment with Eleusine indica (ELEIN); 80% in the experiment with Lolium perenne (LOLPE); 100% in the experiment on Setaia fabei (SETFA); 100% in experiment [3]. Further, the pest or weed control at 500 g/ha in [4], in experiment [5] and in experiment [6] was 100% throughout.
In the case of `O=C(O)c1cccc(C[n+]2ccc(-c3ncco3)cn2)c1` [Compound A104], the pest or weed control at 500 g/ha in experiment [1] amounted to 10%; in experiment [2], 50%; in the experiment on Eleusine indica (ELEIN), 20%; with Lolium perenne (LOLPE), 10%; in the experiment with Setaia fabei (SETFA) it was 60%; in experiment [3] it was 30%. In addition, the pest or weed control at 500 g/ha is 40% in [4], 20% in experiment [5] and 50% in experiment [6].
With `Cc1coc(-c2cc[n+](CCCC(=O)O)nc2)n1` [Compound A135], the pest or weed control at 500 g/ha was 10% in experiment [1]; 90% in [2]; 80% in the experiment with Eleusine indica (ELEIN); 40% in the experiment with Lolium perenne (LOLPE); 90% in the experiment with Setaia fabei (SETFA); 90% in experiment [3]. The pest or weed control at 500 g/ha in experiment [4] is 90%; in experiment [5], 20%; in experiment [6], 90%.
Turning to `O=S(=O)([O-])CCC[n+]1ccc(-c2ncco2)cn1` [Compound A3, 3-(4-oxazol-2-ylpyridazin-1-ium-1-yl)propane-1-sulfonate], the pest or weed control at 125 g/ha in [1] (Application Rate 125 g/Ha) was 40%; in experiment [2] (Application Rate 125 g/Ha), 70%; with Eleusine indica (ELEIN) (Application Rate 125 g/Ha) it was 50%; with Lolium perenne (LOLPE) (Application Rate 125 g/Ha), 20%; in the experiment on Setaia fabei (SETFA) (Application Rate 125 g/Ha) it was 80%; in [3] (Application Rate 125 g/Ha), 70%. Besides, the pest or weed control at 125 g/ha in experiment [4] (Application Rate 125 g/Ha) turned out to be 20%; in experiment [5] (Application Rate 125 g/Ha), 60%; in experiment [6] (Application Rate 125 g/Ha), 80%.
Take `Cn1cnc(-c2cc[n+](CCC(=O)O)nc2)n1` [Compound A51]: the pest or weed control at 500 g/ha is 30% in [1]; 90% in [2]; 70% in the experiment on Eleusine indica (ELEIN); 60% in the experiment on Lolium perenne (LOLPE); 90% with Setaia fabei (SETFA); 90% in experiment [3]. The pest or weed control at 500 g/ha turned out to be 100% in [4], 100% in [5] and 90% in [6].
For the molecule `O=S(=O)([O-])CC[n+]1ccc(-c2ncns2)cn1` [Compound A9], the pest or weed control at 500 g/ha worked out at 80% in experiment [1]; 60% in experiment [2]; 80% with Eleusine indica (ELEIN); 30% in the experiment on Lolium perenne (LOLPE); 60% with Setaia fabei (SETFA); 90% in experiment [3]. Besides, the pest or weed control at 500 g/ha was 90% in experiment [4], 70% in [5] and 70% in experiment [6].
Consider `COP(=O)(O)CC[n+]1ccc(-c2ncco2)cn1` [Compound A106], for which the pest or weed control at 500 g/ha in [1] stood at 20%; in experiment [2], 40%; with Eleusine indica (ELEIN), 20%; in the experiment on Lolium perenne (LOLPE) it was 0%; in the experiment on Setaia fabei (SETFA) it was 50%; in experiment [3] it was 60%. The pest or weed control at 500 g/ha in [4] was 10%; in experiment [5], 0%; in experiment [6] it was 80%.
On to `Cc1nnc(-c2cc[n+](CCC(=O)O)nc2)o1` [Compound A140], for which the pest or weed control at 500 g/ha was 0% in experiment [1]; 20% in [2]; 90% in the experiment on Eleusine indica (ELEIN); 10% in the experiment with Lolium perenne (LOLPE); 70% in the experiment with Setaia fabei (SETFA); 0% in experiment [3]. Besides, the pest or weed control at 500 g/ha in experiment [4] is 10%; in experiment [5], 0%; in [6] it was 70%.
As for `O=S(=O)([O-])CCC[n+]1ccc(-c2nccs2)cn1` [Compound A116], the pest or weed control at 500 g/ha turned out to be 20% in experiment [1]; 60% in experiment [2]; 80% in the experiment on Eleusine indica (ELEIN); 80% in the experiment on Lolium perenne (LOLPE); 60% with Setaia fabei (SETFA); 70% in experiment [3]. The pest or weed control at 500 g/ha in [4] worked out at 100%; in [5] it was 40%; in [6], 60%.
